Test results: US8609361B2, “Real time electrophysiological testing of agents of interest for treatment of amyloid-type diseases” (Universidad de Concepcion, priority 2007, dated 2013)

Tests used:
AMPA and NMDA receptors = details: reported in the art; cited from earlier work
[1] = test system: plasma membrane of hippocampal neurons; assay: cell-attached to perforated patch-clamp recording with the agent in the glass pipette; assay type: cell-based, mice
Experimental: In absence of Aβ or gramicidin, cell attached recordings are stable for more than 60 min.
Control is the charge in cell-attached configuration and reflects the recording of the glass pipette properties partially compensated to visualize part of the transient. Negative pressure reflects the charge obtained with a routine whole-cell configuration. Gramicidin and amphotericin are antibiotics routinely used to generate perforates. Data are ±S.E. average (n=6; different experiments).
The experimental evidence of the invention allows establishing that conductance changes may be the result of the forming of a cationic-type pore, very similar to that generating gramicidin. […] Basically, this invention procedure is formed by two stages: • b) Exposing a small area or patch of plasma membrane, in a preferable embodiment said membranes are neuron membranes, to peptide aggregates under study and/or to active ingredients, and/or compounds of interest. • c) Determining, measuring, and quantifying electric parameters of membranes exposed to these aggregates; in a preferable embodiment, the parameter is conductance (inverse of electrical resistance resulting from resistance range and the glass pipette potential).
The method described in this invention uses a variation of the technique known as patch cell-attached to study the Aβ peptide effects. In this invention embodiment, records very stable in time are obtained and maintained for more than 5 minutes, preferably for more than 15 minutes, and more preferably for more than 30 minutes. At the same time, this embodiment provides an intrinsic noise level under 5 pA, preferably under 3 pA, and more preferably under 1 pA, which may be due to the registry being obtained from a small cell area that normally contains very few ionic channels. […] However, the most important characteristics in this event is the evidence of the fast capacitative resistance component, which reflects formation of a perforated form that supports the conclusion that pores are generated in the membrane (see FIGS. 1 and 2).
Animals are treated and handled according to the NIH recommendations. 18-day pregnant mice (C57BL7J6) are anesthetized with ether and sacrificed through cervical dislocation. Embryo are quickly removed and beheaded with sterile material. Brains are removed and kept in cold Hank medium.
The midbrain is separated in order to expose the hippocampus area, which is dissected from the brain and mechanically dispersed using trypsin, collagenase, and DNAsa III. Neurons are placed (“planted”) in 35 mm dishes covered with poly-L-lisine at a density of 350000 neurons per ml.
Neurons are left to grow in vitro during 12 days, and then recorded using electro-physiology. The means of culture is 80% MEM, 2 mM glutamine, and 10% bovine fetal serum. The means are changed every three days. Every reagent used is dissolved in PBS, which is used as control.
Peptide aggregates are diluted to working concentration and were made at concentrations from 0.01 μM to 50 μM, preferably between 0.03 and 20, more preferably 0.05 and 10 μM. This aggregate is diluted in an internal solution (called so because it artificially imitates intra-cell fluid) mainly formed by KCl, BAPTA, calcium, and ATP, as previously described. The aggregate is diluted in this solution, which is loaded into the pipette to be used for Patch-Clamp. This solution is taken into a tuberculin syringe, from which the needle has been removed, and a small capillary-HPLC is added. With this modified syringe, the internal solution volume is taken with no Aβ aggregates as control. It may also be used with the aggregate and/or other molecules of biologic interest in the event evaluations and determining the said molecules' pharmacologic activities is required.
Using the capillary-HPLC in the syringe, the internal solution is introduced into the glass pipette, slowly removing it as the pipette becomes full in order to reduce bubbles. […]

neurons = assay: whole-cell patch clamp, membrane potential; assay type: cell-based, mice; details: low concentrations (preferably less than 1 μM, more preferably 0.5 μM Aβ)
[2] = Aβ peptide aggregation in solution followed by turbidity (optical density); assay type: physicochemical; details: about 100 μM peptide in PBS pH 7.4, stirring about 600 rpm, about 37° C., after 120 minutes
Experimental: FIG. 2A is a graph indicating the Aβ peptide aggregation structure progress in solution. […] The solution absorbency measurement is observed as a change in optical densities (D.O.), which reflects formation of complex structures, amyloid aggregates. Images B-D correspond to ultra micro photographs obtained with an electronic microscope. The recognition of different structures formed during the aggregation process is possible. Aggregates obtained at 120 min and fibers obtained at 5 days of aggregation are readily noticed.
In order to generate the working solution, these portions are defrosted under a laminar flow bell and diluted in sterile PBS at pH 7.4. 700 μl PBS are added to the 25 μl of each peptide portion, obtaining a final work volume of 725 μl, with peptide at an approximate concentration of 100 μM. This peptide solution is defined as “Soluble Peptide” and it is mainly formed by Aβ peptide monomers. This soluble peptide is induced to aggregation by stirring at approximately 600 rpm at temperature around 37° C. During this process, the solution optical density is determined at 405 nm every 15 minutes for a total time of 120 minutes. […] This solution is called “Aggregate Peptide”, and electronic microscope inspection has determined that it corresponds to a heterogeneous structure population, among which amorphous aggregate shapes, 100 nm protofibril, and short fibers are noted.

Molecule: N#Cc1cc2[nH]c(=O)c(=O)[nH]c2cc1[N+](=O)[O-] [CNQX]
- inhibition of peptide effects on calcium levels (AMPA and NMDA receptors): inhibited

Molecule: Aβ: Synthetic peptide Aβ1-40 (TOCRIS or Sigma), human sequence of β-amyloid peptide, aggregated by stirring at 37° C.
- conversion of the cell-attached recording into a perforated recording (increased capacitative peak and late conductance) ([1]; 500 nM in the glass pipette solution, FIG. 1A): spontaneously convert the recording into a perforated variation of the technique
- charge transferred by the cellular membrane during a 10 mV pulse ([1]; FIG. 3, n=6): form perforations in the membrane
- input current following the high-resistance seal formation ([1]; in the presence of Aβ): −40 to −70 pA
- current range ([1]; low-concentration peptide, few pores in the cell): ≤ 50 pA
- membrane de-polarization ([1]; measurements and recordings of the invention method): has not been detected
- changes in membrane potential (neurons): have not shown significant changes in membrane potential
- solution optical density at 405 nm [2]: 0.2-0.3

Molecule: gramicidin
- development of perforation ([1]; 50 μM in the glass pipette, FIG. 1B): typical perforation
